Reference: US10219516B2, “Molecules having pesticidal utility, and intermediates, compositions, and processes, related thereto” (priority 2015, dated 2019)

Experiments:
Assay type in all cases: in vivo
[1] = tested on: Beet Armyworm (Spodoptera exigua, LAPHEG); test: Bioassay on Beet Armyworm (BAW), 128-well diet tray assay; details: Beet Armyworm, 128-well diet tray assay, read-out: BAW rating
Procedure, shortened: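 Diet tray, 8 wells/compound; 50 μg/cm^2 applied to diet surface (90:10 acetone-water), dried. 1–5 L2 larvae/well; 25° C., 14:10 L:D, 5–7 d. Read-out: % mortality, mean of 8 wells.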

[2] = tested on: Yellow Fever Mosquito (Aedes aegypti, AEDSAE); test: Bioassay on Yellow Fever Mosquito (YFM), 96-well plate larval assay; details: Yellow Fever Mosquito, 96-well plate larval assay
Procedure, shortened: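 Each well was scored for mortality after 3 days at room temperature under a non-evaporative lid. Test molecules came from DMSO masters (4000 ppm stock) diluted with water/acetone 90:10 and dispensed into six replicate plates, which were then infested with roughly 1-day-old larvae in liver-powder water.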

[3] = tested on: Cabbage Looper (Trichoplusia ni, TRIPNI); test: Bioassay on Cabbage Looper (CL), 128-well diet tray assay; details: Trichoplusia ni; Cabbage Looper, 128-well diet tray assay; read-out: CL rating
Procedure, shortened: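 Mortality of second instar larvae exposed to diet coated with 50 μg/cm^2 compound (acetone-water 90:10 vehicle, dried); 25° C., 5–7 days.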

## COc1nccc(NC(=O)c2cc(NC(=O)[C@H]3[C@H](c4cc(Cl)cc(Cl)c4)C3(Cl)Cl)ccc2Cl)c1Cl (relative stereo) [F546, 2-Chloro-N-(3-chloro-2-methoxypyridin-4-yl)-5-(trans-2,2-dichloro-3-(3,5-dichlorophenyl)cyclopropane-1-carboxamido)benzamide]
[1]
  pest or weed control at 50 µg/cm2: 50 to 100%
[2]
  YFM rating: A (80-100)
[3]
  pest or weed control at 50 µg/cm2: 50 to 100%

## COc1nccc(NC(=O)c2cc(NC(=O)[C@H]3[C@H](c4ccc(F)c(Cl)c4)C3(Cl)Cl)ccc2Cl)c1Cl (relative stereo) [F547, 2-Chloro-N-(3-chloro-2-methoxypyridin-4-yl)-5-(trans-2,2-dichloro-3-(3-chloro-4-fluorophenyl)cyclopropane-1-carboxamido)benzamide]
[1]
  pest or weed control at 50 µg/cm2: 50 to 100%
[2]
  YFM rating: A (80-100)
[3]
  pest or weed control at 50 µg/cm2: 50 to 100%

## COc1cc(NC(=O)c2cc(NC(=O)[C@H]3[C@H](c4cc(Cl)cc(Cl)c4)C3(Cl)Cl)ccc2Cl)c(Br)cn1 (relative stereo) [F548, N-(5-Bromo-2-methoxypyridin-4-yl)-2-chloro-5-(trans-2,2-dichloro-3-(3,5-dichlorophenyl)cyclopropane-1-carboxamido)benzamide]
[1]
  pest or weed control at 50 µg/cm2: 50 to 100%
[2]
  YFM rating: A (80-100)
[3]
  pest or weed control at 50 µg/cm2: 50 to 100%

## COc1cc(NC(=O)c2cc(NC(=O)[C@H]3[C@H](c4ccc(F)c(Cl)c4)C3(Cl)Cl)ccc2Cl)c(Br)cn1 (relative stereo) [F549, N-(5-Bromo-2-methoxypyridin-4-yl)-2-chloro-5-(trans-2,2-dichloro-3-(3-chloro-4-fluorophenyl)cyclopropane-1-carboxamido)benzamide]
[1]
  pest or weed control at 50 µg/cm2: 50 to 100%
[2]
  YFM rating: A (80-100)
[3]
  pest or weed control at 50 µg/cm2: 50 to 100%

## COc1ccc(NC(=O)c2cc(NC(=O)[C@H]3[C@H](c4cc(Cl)cc(Cl)c4)C3(Cl)Cl)ccc2Cl)cn1 (relative stereo) [F550, 2-Chloro-5-(trans-2,2-dichloro-3-(3,5-dichlorophenyl)cyclopropane-1-carboxamido)-N-(6-methoxypyridin-3-yl)benzamide]
[1]
  pest or weed control at 50 µg/cm2: 50 to 100%
[2]
  YFM rating: A (80-100)
[3]
  pest or weed control at 50 µg/cm2: 50 to 100%

## COc1ccc(NC(=O)c2cc(NC(=O)[C@H]3[C@H](c4ccc(F)c(Cl)c4)C3(Cl)Cl)ccc2Cl)cn1 (relative stereo) [F551, 2-Chloro-5-(trans-2,2-dichloro-3-(3-chloro-4-fluorophenyl)cyclopropane-1-carboxamido)-N-(6-methoxypyridin-3-yl)benzamide]
[1]
  pest or weed control at 50 µg/cm2: 50 to 100%
[2]
  YFM rating: A (80-100)
[3]
  pest or weed control at 50 µg/cm2: 50 to 100%

## COc1ccc(NC(=O)c2cc(NC(=O)[C@H]3[C@H](c4cc(Cl)cc(Cl)c4)C3(Cl)Cl)ccc2Cl)c(Cl)n1 (relative stereo) [F552, 2-Chloro-N-(2-chloro-6-methoxypyridin-3-yl)-5-(trans-2,2-dichloro-3-(3,5-dichlorophenyl)cyclopropane-1-carboxamido)benzamide]
[1]
  pest or weed control at 50 µg/cm2: 50 to 100%
[2]
  YFM rating: A (80-100)
[3]
  pest or weed control at 50 µg/cm2: 50 to 100%

## COc1ccc(NC(=O)c2cc(NC(=O)[C@H]3[C@H](c4ccc(F)c(Cl)c4)C3(Cl)Cl)ccc2Cl)c(Cl)n1 (relative stereo) [F553, 2-Chloro-N-(2-chloro-6-methoxypyridin-3-yl)-5-(trans-2,2-dichloro-3-(3-chloro-4-fluorophenyl)cyclopropane-1-carboxamido)benzamide]
[1]
  pest or weed control at 50 µg/cm2: 50 to 100%
[2]
  YFM rating: A (80-100)
[3]
  pest or weed control at 50 µg/cm2: 50 to 100%

## O=C(Nc1ccc(F)cc1F)c1cc(NC(=O)[C@H]2[C@H](c3cc(Cl)cc(C(F)F)c3)C2(Cl)Cl)ccc1Cl (relative stereo) [F558, 2-Chloro-5-(trans-2,2-dichloro-3-(3-chloro-5-(difluoromethyl)phenyl)cyclopropane-1-carboxamido)-N-(2,4-difluorophenyl)benzamide]
[1]
  pest or weed control at 50 µg/cm2: 50 to 100%
[2]
  YFM rating: A (80-100)
[3]
  pest or weed control at 50 µg/cm2: 50 to 100%

## O=C(Nc1ccc(F)cc1F)c1cc(NC(=O)[C@H]2[C@H](c3ccc(Cl)c(C(F)F)c3)C2(Cl)Cl)ccc1Cl (relative stereo) [F559, 2-Chloro-5-(trans-2,2-dichloro-3-(4-chloro-3-(difluoromethyl)phenyl)cyclopropane-1-carboxamido)-N-(2,4-difluorophenyl)benzamide]
[1]
  pest or weed control at 50 µg/cm2: 50 to 100%
[2]
  YFM rating: A (80-100)
[3]
  pest or weed control at 50 µg/cm2: 50 to 100%

## O=C(Nc1ccc(F)cc1F)c1cc(NC(=O)[C@H]2[C@H](c3cc(F)cc(C(F)F)c3)C2(Cl)Cl)ccc1Cl (relative stereo) [F560, 2-Chloro-5-(trans-2,2-dichloro-3-(3-(difluoromethyl)-5-fluorophenyl)cyclopropane-1-carboxamido)-N-(2,4-difluorophenyl)benzamide]
[1]
  pest or weed control at 50 µg/cm2: 50 to 100%
[2]
  YFM rating: A (80-100)
[3]
  pest or weed control at 50 µg/cm2: 50 to 100%

## O=C(Nc1ccc(F)cc1F)c1cc(NC(=O)[C@H]2[C@H](c3ccc(F)c(C(F)F)c3)C2(Cl)Cl)ccc1Cl (relative stereo) [F561, 2-Chloro-5-(trans-2,2-dichloro-3-(3-(difluoromethyl)-4-fluorophenyl)cyclopropane-1-carboxamido)-N-(2,4-difluorophenyl)benzamide]
[1]
  pest or weed control at 50 µg/cm2: 50 to 100%
[2]
  YFM rating: A (80-100)
[3]
  pest or weed control at 50 µg/cm2: 50 to 100%

## O=C(Nc1ccc(F)cc1F)c1cc(NC(=O)[C@H]2[C@H](c3ccc(C(F)F)c(Cl)c3)C2(Cl)Cl)ccc1Cl (relative stereo) [F562, 2-Chloro-5-(trans-2,2-dichloro-3-(3-chloro-4-(difluoromethyl)phenyl)cyclopropane-1-carboxamido)-N-(2,4-difluorophenyl)benzamide]
[1]
  pest or weed control at 50 µg/cm2: 50 to 100%
[2]
  YFM rating: A (80-100)
[3]
  pest or weed control at 50 µg/cm2: 50 to 100%

## O=C(Nc1ccc(F)cc1F)c1cc(NC(=O)[C@H]2[C@H](c3ccc(C(F)F)c(F)c3)C2(Cl)Cl)ccc1Cl (relative stereo) [F563, 2-Chloro-5-(trans-2,2-dichloro-3-(4-(difluoromethyl)-3-fluorophenyl)cyclopropane-1-carboxamido)-N-(2,4-difluorophenyl)benzamide]
[1]
  pest or weed control at 50 µg/cm2: 50 to 100%
[2]
  YFM rating: A (80-100)
[3]
  pest or weed control at 50 µg/cm2: 50 to 100%

## O=C(Nc1ccc(F)cc1F)c1cc(NC(=O)[C@H]2[C@H](c3cccc(C(F)F)c3)C2(Cl)Cl)ccc1Cl (relative stereo) [F564, 2-Chloro-5-(trans-2,2-dichloro-3-(3-(difluoromethyl)phenyl)cyclopropane-1-carboxamido)-N-(2,4-difluorophenyl)benzamide]
[1]
  pest or weed control at 50 µg/cm2: 50 to 100%
[2]
  YFM rating: A (80-100)
[3]
  pest or weed control at 50 µg/cm2: 50 to 100%

## O=C(Nc1ccc(F)cc1F)c1cc(NC(=O)[C@H]2[C@H](c3ccc(C(F)F)cc3)C2(Cl)Cl)ccc1Cl (relative stereo) [F565, 2-Chloro-5-(trans-2,2-dichloro-3-(4-(difluoromethyl)phenyl)cyclopropane-1-carboxamido)-N-(2,4-difluorophenyl)benzamide]
[1]
  pest or weed control at 50 µg/cm2: 50 to 100%
[2]
  YFM rating: A (80-100)
[3]
  pest or weed control at 50 µg/cm2: 50 to 100%

## C=Cc1c(F)cc([C@H]2[C@H](C(=O)Nc3ccc(Cl)c(C(=O)Nc4ccc(F)cc4F)c3)C2(Cl)Cl)cc1F (relative stereo) [F566, 2-Chloro-5-(trans-2,2-dichloro-3-(3,5-difluoro-4-vinylphenyl)cyclopropane-1-carboxamido)-N-(2,4-difluorophenyl)benzamide]
[1]
  pest or weed control at 50 µg/cm2: 50 to 100%
[2]
  YFM rating: A (80-100)
[3]
  pest or weed control at 50 µg/cm2: 50 to 100%

## Cc1cc(N)ccc1NC(=O)c1cc(NC(=O)[C@H]2[C@H](c3ccc(Cl)c(Cl)c3)C2(Cl)Cl)ccc1Cl (relative stereo) [F574, trans-N-(4-Amino-2-methylphenyl)-2-chloro-5-(2,2-dichloro-3-(3,4-dichlorophenyl)cyclopropane-1-carboxamido)benzamide]
[1]
  pest or weed control at 50 µg/cm2: 50 to 100%
[2]
  YFM rating: A (80-100)
[3]
  pest or weed control at 50 µg/cm2: 50 to 100%

## O=C(Nc1ncc(F)cc1F)c1cc(NC(=O)[C@H]2[C@H](c3ccc(Cl)c(C(F)F)c3)C2(Cl)Cl)ccc1Cl (relative stereo) [F585, 2-Chloro-5-(trans-2,2-dichloro-3-(4-chloro-3-(difluoromethyl)phenyl)cyclopropane-1-carboxamido)-N-(3,5-difluoropyridin-2-yl)benzamide]
[1]
  pest or weed control at 50 µg/cm2: 50 to 100%
[2]
  YFM rating: A (80-100)
[3]
  pest or weed control at 50 µg/cm2: 50 to 100%

## O=C(Nc1ncc(F)cc1F)c1cc(NC(=O)[C@H]2[C@H](c3cc(F)cc(C(F)F)c3)C2(Cl)Cl)ccc1Cl (relative stereo) [F586, 2-Chloro-5-(trans-2,2-dichloro-3-(3-(difluoromethyl)-5-fluorophenyl)cyclopropane-1-carboxamido)-N-(3,5-difluoropyridin-2-yl)benzamide]
[1]
  pest or weed control at 50 µg/cm2: 50 to 100%
[2]
  YFM rating: A (80-100)
[3]
  pest or weed control at 50 µg/cm2: 50 to 100%

## O=C(Nc1ncc(F)cc1F)c1cc(NC(=O)[C@H]2[C@H](c3ccc(F)c(C(F)F)c3)C2(Cl)Cl)ccc1Cl (relative stereo) [F587, 2-Chloro-5-(trans-2,2-dichloro-3-(3-(difluoromethyl)-4-fluorophenyl)cyclopropane-1-carboxamido)-N-(3,5-difluoropyridin-2-yl)benzamide]
[1]
  pest or weed control at 50 µg/cm2: 50 to 100%
[2]
  YFM rating: A (80-100)
[3]
  pest or weed control at 50 µg/cm2: 50 to 100%
